Assay results from US20050065203A1, “Method of reducing type 2 diabetes in high risk patients” (priority 2001, published 2005).
Read-outs that look alike come from different tables or passages of the source.

How the values were obtained:
[1] = patients with diabetes in HOPE, serial annual recordings, first 2 years; cited from earlier work
[2] = SECURE study, P=0.03, cited from earlier work
[3] = system: people at high risk, with and without a diagnosis of diabetes; settings: cited from earlier work
[4] = system: patients without known diabetes but with vascular disease; assay: Heart Outcomes Prevention Evaluation (HOPE) trial: new diagnosis of diabetes; assay type: in vivo, human; settings: for New Diabetes With Glycated Hemoglobulin ≧ 110%, ULN, RR (85%) CI) / New Diabetes With Oral Agents or Insulin, RR (85%) CI) / New Diabetes With Oral Agents or insulin and Glycated Hemoglobulin ≧ 110%, ULN, RR (85%) CI) / New Diabetes, RR (85%) CI): vs placebo
Description: The design of the Heart Outcomes Prevention Evaluation (HOPE) trial has been described in detail in previous publications. Briefly, individuals who were 55 years or older with no evidence of left ventricular dysfunction or heart failure and who had evidence of vascular disease or who had diabetes and one other risk factor were eligible as long as they had no indication or contraindication to receiving an ACE-inhibitor. The study was conducted in 26 hospitals in 19 countries from 1994 to 1999. All patients provided written informed consent.
Of 10576 eligible patients who participated in a run-in period during which they received 2.5 mg ramipril once daily for 1 week followed by matching placebo for 10 to 14 days, 1035 (9.8%) were excluded from randomization (3.2% for side effects, 3.7% for lack of consent). […] In the following it is primarily foccuessed on the latter group of patients. Of these patients, 5720 were randomized to receive up to 10 mg of ramipril once per day or equivalent placebo. One hundred sixty-seven patients who were randomized to receive a low dose (2.5 mg/day) of ramipril as part of the Study to Evaluate Carotid Ultrasound changes with Ramipril and Vitamin E (SECURE). Substudy results are not included. All randomized patients were also randomized to receive 400 IU of Vitamin E or placebo.
Follow-up visits occurred at 1 month and 6 months after randomization and then every 6 months (mean follow-up of 4.5 years). At each visit, it was documented whether the diagnosis of diabetes had been made since the last visit.
The primary outcome of this analysis is a new diagnosis of diabetes recorded on the basis of self-report. […] Hemoglobin A1c (HbA1c) levels and medications used among those diagnosed as having diabetes were also recorded. The HbA1c levels; were determined locally. Values higher than 110% of the upper limit of normal for each laboratory were considered to be biochemical confirmation of diabetes.
Survival curves utilizing the Kaplan Meier and log-rank procedures were used to describe and compare the results in the 2 treatment groups. Because of the factorial design, all analyses were stratified for randomization to vitamin E or placebo. Subgroup analyses were conducted using tests of interaction in the Cox regression model.
Design, Setting and Participants: The randomized, controlled Heart Outcomes Prevention Evaluation trial of 5720 patients older than 55 years without known diabetes but with vascular disease who were followed up for a mean of 4.5 years. The study included 267 hospitals in 19 countries and was conducted between 1994 and 1999.
Intervention: Patients were randomly assigned to receive ramipril, up to 10 mg/d (n=2837), or placebo (n=2883).
Main Outcome Measure: Diagnosis of diabetes determined from self-report at follow-up visits every 6 months, compared between the 2 groups.

[5] = system: patients without known diabetes but with vascular disease; settings: study participants without known diabetes at randomization (N Engl J. Med. 2000); cited from earlier work
[6] = ramipril up to 10 mg/d (n=2837), mean follow-up 4.5 years
[7] = subgroup Body mass index >27.7 Kg/m^2
[8] = subgroup Without microalbuminuria

CCOC(=O)[C@H](CCc1ccccc1)N[C@@H](C)C(=O)N1[C@H](C(=O)O)C[C@@H]2CCC[C@@H]21 [ramipril]
reduction in HbA10 levels, absolute difference [1]: 0.2%
increase in fasting glucose ([2]; placebo 0.41 mmols): 0.25 mmols
increase in fasting glucose ([2]; placebo 15.8 mg/dL): 9.6 mg/dL
myocardial infarction, strokes, death, and the development of diabetic nephropathy [3]: reduces
New Diabetes With Glycated Hemoglobulin ≧ 110%, ULN, No. of patients ([4]; No new MA or ON): 42
New Diabetes With Glycated Hemoglobulin ≧ 110%, ULN, proportion of patients (in parentheses) ([4]; No new MA or ON): 1.7
New Diabetes With Oral Agents or Insulin, No. of patients ([4]; No new MA or ON): 45
New Diabetes With Oral Agents or Insulin, proportion of patients (in parentheses) ([4]; No new MA or ON): 1.8
New Diabetes With Oral Agents or insulin and Glycated Hemoglobulin ≧ 110%, ULN, No. of patients ([4]; No new MA or ON): 30
New Diabetes With Oral Agents or insulin and Glycated Hemoglobulin ≧ 110%, ULN, proportion of patients (in parentheses) ([4]; No new MA or ON): 1.2
New Diabetes, No. of patients ([4]; No new MA or ON): 82
New Diabetes, proportion of patients (in parentheses) ([4]; No new MA or ON): 3.3
New Diabetes With Glycated Hemoglobulin ≧ 110%, ULN, RR (85%) CI) ([4]; No new MA or ON): 0.66 (0.48-0.98)
New Diabetes With Oral Agents or Insulin, RR (85%) CI) ([4]; No new MA or ON): 0.56 (0.39-0.81)
New Diabetes With Oral Agents or insulin and Glycated Hemoglobulin ≧ 110%, ULN, RR (85%) CI) ([4]; No new MA or ON): 0.60 (0.38-0.94)
New Diabetes, RR (85%) CI) ([4]; No new MA or ON): 0.67 (0.51-0.89)
New Diabetes With Glycated Hemoglobulin ≧ 110%, ULN, No. of patients ([4]; No primary event): 45
New Diabetes With Glycated Hemoglobulin ≧ 110%, ULN, proportion of patients (in parentheses) ([4]; No primary event): 1.8
New Diabetes With Oral Agents or Insulin, No. of patients ([4]; No primary event): 54
New Diabetes With Oral Agents or Insulin, proportion of patients (in parentheses) ([4]; No primary event): 2.2
New Diabetes With Oral Agents or insulin and Glycated Hemoglobulin ≧ 110%, ULN, No. of patients ([4]; No primary event): 32
New Diabetes With Oral Agents or insulin and Glycated Hemoglobulin ≧ 110%, ULN, proportion of patients (in parentheses) ([4]; No primary event): 1.3
New Diabetes, No. of patients ([4]; No primary event): 93
New Diabetes, proportion of patients (in parentheses) ([4]; No primary event): 3.8
New Diabetes With Oral Agents or Insulin, RR (85%) CI) ([4]; No primary event): 0.58 (0.42-0.82)
New Diabetes With Oral Agents or insulin and Glycated Hemoglobulin ≧ 110%, ULN, RR (85%) CI) ([4]; No primary event): 0.51 (0.33-0.78)
New Diabetes, RR (85%) CI) ([4]; No primary event): 0.69 (0.53-0.91)
New Diabetes With Glycated Hemoglobulin ≧ 110%, ULN, No. of patients ([4]; With new MA or ON): 10
New Diabetes With Glycated Hemoglobulin ≧ 110%, ULN, proportion of patients (in parentheses) ([4]; With new MA or ON): 2.8
New Diabetes With Oral Agents or insulin and Glycated Hemoglobulin ≧ 110%, ULN, No. of patients ([4]; With new MA or ON): 6
New Diabetes With Oral Agents or insulin and Glycated Hemoglobulin ≧ 110%, ULN, proportion of patients (in parentheses) ([4]; With new MA or ON): 1.7
New Diabetes, No. of patients ([4]; With new MA or ON): 20
New Diabetes, proportion of patients (in parentheses) ([4]; With new MA or ON): 5.8
New Diabetes With Glycated Hemoglobulin ≧ 110%, ULN, RR (85%) CI) ([4]; With new MA or ON): 0.47 (0.23-0.98)
New Diabetes With Oral Agents or insulin and Glycated Hemoglobulin ≧ 110%, ULN, RR (85%) CI) ([4]; With new MA or ON): 0.32 (0.13-0.79)
New Diabetes, RR (85%) CI) ([4]; With new MA or ON): 0.65 (0.38-1.12)
New Diabetes With Oral Agents or Insulin, No. of patients ([4]; With new NA or ON): 14
New Diabetes With Oral Agents or Insulin, proportion of patients (in parentheses) ([4]; With new NA or ON): 3.9
New Diabetes With Oral Agents or Insulin, RR (85%) CI) ([4]; With new NA or ON): 0.61 (0.32-1.16)
New Diabetes With Glycated Hemoglobulin ≧ 110%, ULN, No. of patients ([4]; With primary event): 7
New Diabetes With Glycated Hemoglobulin ≧ 110%, ULN, proportion of patients (in parentheses) ([4]; With primary event): 1.9
New Diabetes With Oral Agents or Insulin, No. of patients ([4]; With primary event): 5
New Diabetes With Oral Agents or Insulin, proportion of patients (in parentheses) ([4]; With primary event): 1.3
New Diabetes With Oral Agents or insulin and Glycated Hemoglobulin ≧ 110%, ULN, No. of patients ([4]; With primary event): 4
New Diabetes With Oral Agents or insulin and Glycated Hemoglobulin ≧ 110%, ULN, proportion of patients (in parentheses) ([4]; With primary event): 1.1
New Diabetes, No. of patients ([4]; With primary event): 9
New Diabetes, proportion of patients (in parentheses) ([4]; With primary event): 2.4
New Diabetes With Glycated Hemoglobulin ≧ 110%, ULN, RR (85%) CI) ([4]; With primary event): 0.59 (0.24-1.43)
New Diabetes With Oral Agents or Insulin, RR (85%) CI) ([4]; With primary event): 0.42 (0.15-1.14)
New Diabetes With Oral Agents or insulin and Glycated Hemoglobulin ≧ 110%, ULN, RR (85%) CI) ([4]; With primary event): 0.54 (0.17-1.72)
New Diabetes, RR (85%) CI) ([4]; With primary event): 0.48 (0.21-0.98)
patients diagnosed to have diabetes and glycated hemoglobin of 110% or more above upper limit of normal, % ([4]; ramipril group): 1.8%
patients with new diabetes meeting all criteria, % ([4]; ramipril group): 1.3%
patients with new diabetes receiving an oral glucose lowering agent or insulin, % ([4]; ramipril group): 2.1%
individuals who reported a new diagnosis of diabetes, % [4, 6]: 3.6%
individuals who reported a new diagnosis of diabetes, No. [4, 6]: 102 and One hundred and two
relative risk of diabetes diagnosis with glycated hemoglobin of 110% or more of ULN ([4]; ramipril vs placebo): 0.60
relative risk of new diabetes meeting all criteria ([4]; ramipril vs placebo): 0.51
relative risk of new diabetes with oral glucose lowering agent or insulin ([4]; ramipril vs placebo): 0.56
relative risk of new diagnosis of diabetes ([4]; ramipril vs placebo): 0.66
No. With Diabetes ([4]; subgroup): 39
(%) With Diabetes [4, 7]: (5.8) %
No. With Diabetes [4, 7]: 63
(%) With Diabetes ([4]; subgroup Body mass index ≦7.7 Kg/m^2): (2.2) %
(%) With Diabetes ([4]; subgroup Not taking diuretics): (3.4) %
No. With Diabetes ([4]; subgroup Not taking diuretics): 84
(%) With Diabetes ([4]; subgroup Not taking β-blocker): (3.3) %
No. With Diabetes ([4]; subgroup Not taking β-blocker): 50
(%) With Diabetes ([4]; subgroup Taking diuretics): (5.0) %
No. With Diabetes ([4]; subgroup Taking diuretics): 18
(%) With Diabetes ([4]; subgroup Taking β-blocker): (4.0) %
No. With Diabetes ([4]; subgroup Taking β-blocker): 52
(%) With Diabetes ([4]; subgroup Waist-hip ratio >0.93): (4.4) %
No. With Diabetes ([4]; subgroup Waist-hip ratio >0.93): 63
(%) With Diabetes ([4]; subgroup Waist-hip ratio ≦0.93): (2.8) %
No. With Diabetes ([4]; subgroup Waist-hip ratio ≦0.93): 39
(%) With Diabetes ([4]; subgroup With hypertension): (4.2) %
No. With Diabetes ([4]; subgroup With hypertension): 49
(%) With Diabetes ([4]; subgroup With microalbuminuria): (4.2) %
No. With Diabetes ([4]; subgroup With microalbuminuria): 17
(%) With Diabetes ([4]; subgroup Without hypertension): (3.2) %
No. With Diabetes ([4]; subgroup Without hypertension): 53
(%) With Diabetes [4, 8]: (3.5) %
No. With Diabetes [4, 8]: 85
relative risk for diabetes ([4]; subgroup who never took diuretics or β-blockers during the study, ramipril vs placebo): 0.62
development of diabetes [5]: reduced

Vitamin E
effect on diabetes ([4]; 400 IU Vitamin E vs placebo): did not differ
